Assay results reported in patent publication US12469580B2, “In silico discovery of effective antimicrobials” (MASSACHUSETTS INSTITUTE OF TECHOLOGY, priority 2019, dated 2025).
Values after ≈ are worked out from the molar mass of the structure shown. “Also recorded” adds a separate entry of the source.

Tests used:
C. difficile 630 = assay: C. difficile mouse infection model; format: in vivo, C57BL/6 mice; details: for rate of C. difficile clearance from feces: halicin 15 mg/kg, metronidazole 50 mg/kg, vehicle 10% PEG 300
E. coli [1] = format: cell-based
[2] = system: E. coli strains harboring plasmid-borne antibiotic-resistance genes; format: cell-based
[3] = system: E. coli, S. aureus, Klebsiella pneumoniae, A. baumannii, and P. aeruginosa; assay: ZINC15 compound validation, growth inhibition against a range of pathogens; format: cell-based; details: LB media
[4] = system: ciprofloxacin-resistant gyrA S83A mutant of BW25113; format: cell-based, E. coli
[5] = system: E. coli in a metabolically repressed, antibiotic-tolerant state; assay: Bacterial cell killing assay, E. coli in nutrient-free buffer (PBS); format: cell-based
E. coli [6] = format: cell-based; remark: listed apart in the source
[7] = system: Carbapenem-resistant Enterobacteriaceae (CRE) clinical isolates; format: cell-based
E. coli MC1061 = assay: DiSC3(5) assay, E. coli; format: cell-based; details: early-log cells in buffer
A. baumannii 288 cells = assay: Bacterial cell killing assay, A. baumannii CDC 288 in PBS; format: cell-based; details: metabolically repressed
A. baumannii CDC 288 [8] = assay: Growth inhibition of pan-resistant A. baumannii CDC 288 in vitro; format: cell-based; details: Acinetobacter baumannii, CDC288, A. baumannii strain 288 (CDC)
E. coli [9] = assay: Growth inhibition of E. coli in pH-adjusted or bicarbonate-supplemented media
E. coli BW25113 [10] = assay: Growth inhibition assay against E. coli; format: cell-based; details: Escherichia coli, rich growth conditions, read-out: minimum inhibitory concentration (MIC)
E. coli BW25113 [11] = assay: Evolution of resistance (serial passage, spontaneous suppressor generation); format: cell-based; details: 30 days serial passaging in liquid media; seven days on solid media
[12] = system: A. baumannii clinical isolates; assay: Growth inhibition of multidrug-resistant clinical isolates, A. baumannii; format: cell-based; details: 36 multidrug-resistant clinical isolates
MRSA = assay: Activity against MRSA; format: cell-based, Staphylococcus aureus
S. aureus USA300 = assay: Growth inhibition of S. aureus in pH-adjusted media; format: cell-based, Staphylococcus aureus
ΔnfsAΔnfsB E. coli = format: cell-based; details: deletion of nfsA and nfsB
M. tuberculosis = assay: Bacterial cell killing assay, M. tuberculosis in 7H9 media; format: cell-based, Mycobacterium tuberculosis; details: 16 μg/ml
E. coli [13] = assay: Growth inhibition checkerboards of halicin in combination; format: cell-based
A. baumannii CDC 288 [14] = assay: A. baumannii mouse wound infection model; format: in vivo, Balb/c mice; details: halicin 0.5% w/v topical, 25 hours post-infection
E. coli persister cells = assay: Killing of E. coli persister cells after ampicillin treatment; format: cell-based; details: cells that remained after treatment with ampicillin
M. tuberculosis H37Rv = assay: Growth inhibition of M. tuberculosis; format: cell-based; details: Mycobacterium tuberculosis, 7H9 medium, stated as 1×MIC
[15] = system: Pseudomonas aeruginosa clinical isolates; assay: Growth inhibition of multidrug-resistant clinical isolates, P. aeruginosa; format: cell-based; details: 36 multidrug-resistant clinical isolates
[16] = system: daptomycin-resistant RN4220 strain (Δdsp1); format: cell-based, S. aureus
C. difficile strain 630 = assay: Growth inhibition of C. difficile 630 in vitro; format: cell-based; details: Clostridioides difficile; C. difficile strain 630, in vitro

Molecule: Cc1ncc([N+](=O)[O-])n1CCO [Metronidazole, metronidazole, reference compound]
- rate of C. difficile clearance from feces (C. difficile 630): did not result in enhanced rates of clearance relative to vehicle controls

Molecule: C[C@H]1CN(c2cc3c(cc2[N+](=O)[O-])c(=O)c(C(=O)O)cn3C2CC2)CCN1N=Nc1ccc(S(N)(=O)=O)cc1 [ZINC000100032716, 1-Cyclopropyl-7-[(3S)-3-methyl-4-[(4-sulfamoylphenyl)diazenyl]piperazin-1-yl]-6-nitro-4-oxoquinoline-3-carboxylic acid]
- bactericidal activity against E. coli (E. coli [1]): bactericidal activity
- activity against E. coli harboring resistance determinants [2]: overcome an array of common resistance determinants
- impact of plasmid-borne fluoroquinolone resistance on MIC [2]: only weakly impacted; also recorded: minor increase in MIC
- spectrum of growth inhibitory activity [3]: potent broad-spectrum activity
- impact of chromosomal resistance [4]: only weakly impacted
- smaller change in MIC between gyrA mutant and wildtype E. coli relative to ciprofloxacin ([4]; gyrA S83A vs BW25113): 4 fold

Molecule: CC1(C)S[C@@H]2[C@H](NC(=O)[C@H](N)c3ccccc3)C(=O)N2[C@H]1C(=O)O [ampicillin, reference compound]
- bacterial cell killing, metabolically active E. coli (E. coli [1]): efficacy against metabolically active cells
- bactericidal activity against metabolically repressed, antibiotic-tolerant E. coli [5]: unable to eradicate E. coli

Molecule: Nc1nnc(Sc2ncc([N+](=O)[O-])s2)s1 [halicin, 5-[(5-nitro-1,3-thiazol-2-yl)sulfanyl]-1,3,4-thiadiazol-2-amine]
- expression of cell motility genes (E. coli [6]): rapid downregulation of genes involved in cell motility
- expression of iron homeostasis genes (E. coli [6]; sub-lethal concentrations): upregulation of genes required for iron homeostasis
- growth inhibition of CRE clinical isolates [7]: strong growth inhibitory activity
- DiSC3(5) fluorescence change, E. coli (E. coli MC1061): immediate decrease in DiSC3(5) fluorescence in a dose-dependent manner
- bacterial cell killing, metabolically active E. coli (E. coli [1]): bacterial cell killing was observed
- killing of A. baumannii 288 in antibiotic-tolerant conditions (A. baumannii 288 cells): able to sterilize A. baumannii 288 cells
- bactericidal activity against metabolically repressed, antibiotic-tolerant E. coli [5]: retained bactericidal activity against tolerant cells
- change in MIC in the presence of resistance gene relative to antibiotic-susceptible parent strains [2]: No change in halicin MIC
- MIC (A. baumannii CDC 288 [8]): 1 µg/mL (≈ 3.83 µM)
- potency as a function of media pH, E. coli (E. coli [9]): halicin potency decreased as pH increased
- effect of sodium bicarbonate on growth inhibition (E. coli [9]; 25 mM sodium bicarbonate in growth medium): antagonized the action of halicin
- mice sterilized after 72 hours of treatment (C. difficile 630; 15 mg/kg gavage every 24 hours): 3 out of 4
- mice sterilized after 96 hours of treatment (C. difficile 630; 15 mg/kg gavage every 24 hours): 4 out of 4
- mice free of infection at 96 hours after treatment (C. difficile 630; 15 mg/kg, n=4): 100%
- rate of C. difficile clearance from feces (C. difficile 630): clearance from feces at a greater rate than vehicle or the antibiotic metronidazole
- MIC (E. coli BW25113 [10]): 2 µg/mL (≈ 7.65 µM)
- evolution of resistant mutants (E. coli BW25113 [11]): not possible to isolate spontaneous suppressor mutants
- growth inhibition of A. baumannii clinical isolates [12]: strong growth inhibitory activity
- activity against MRSA (MRSA): potent activity
- potency as a function of media pH, Staphylococcus aureus (S. aureus USA300): halicin potency decreased as pH increased
- change in MIC in nitrofurantoin-resistant E. coli (ΔnfsAΔnfsB E. coli): did not change
- bactericidal activity against M. tuberculosis (M. tuberculosis): rapidly bactericidal
- interaction with kanamycin (E. coli [13]; checkerboard): synergized with kanamycin
- interaction with tetracycline (E. coli [13]; checkerboard): antagonized the activity of tetracycline
- interaction with Fe^3+ (FeCl3) (E. coli [13]; increasing concentrations of environmental Fe^3+): enhanced potency of halicin
- bacterial load of wound tissue, one mouse (A. baumannii CDC 288 [14]): ≈ 10^5 CFU/g
- bacterial load of wound tissue, 5 of the 6 mice (A. baumannii CDC 288 [14]; below the limit of detection): less than 10^3 CFU/g
- eradication of E. coli persister cells (E. coli persister cells): able to eradicate E. coli persister cells
- MIC (M. tuberculosis H37Rv): 16 µg/mL (≈ 61.2 µM)
- growth inhibition of P. aeruginosa clinical isolates [15]: lack of efficacy
- cross-resistance in daptomycin-resistant S. aureus [16]: did not confer cross-resistance to halicin
- MIC (C. difficile strain 630): 0.5 µg/mL (≈ 1.91 µM)

Molecule: polymyxin B [reference compound]
- DiSC3(5) fluorescence change, E. coli (E. coli MC1061): corresponding increase in fluorescence
